Test results published in patent publication US12649733B2, “3,6-diamino-pyridazin-3-yl derivatives, pharmaceutical compositions containing them and their uses as pro-apoptotic agents” (LES LABORATOIRES SERVIER, priority 2019, dated 2026).

Tests used:
[1] = test system: hematological malignancies and solid tumors; conditions: several hematological malignancies and solid tumors; cited from earlier work
lymphoid malignancies = conditions: cited from earlier work
[2] = test system: T-ALL patient derived xenograft models; conditions: in vivo; cited from earlier work
lymphocyte proliferation = conditions: in vitro; cited from earlier work
[3] = mice, animal models of arthritis and lupus; cited from earlier work
allogeneic T-cell = conditions: in vitro; cited from earlier work
[4] = test system: allogeneic T- and B-cell responses; conditions: after skin transplantation; cited from earlier work
BCLXL [5] = molecular target: T1, BCLXL (Homo sapiens, UniProt Q07817, V10N/V9A); test: Fluorescence polarisation assay (PUMA-based probe displacement); assay type: binding; also: 20 nM protein, 10 nM fluorescent probe
T1 sequence (Q07817 with tags, fused parts or gaps V9A/V10N): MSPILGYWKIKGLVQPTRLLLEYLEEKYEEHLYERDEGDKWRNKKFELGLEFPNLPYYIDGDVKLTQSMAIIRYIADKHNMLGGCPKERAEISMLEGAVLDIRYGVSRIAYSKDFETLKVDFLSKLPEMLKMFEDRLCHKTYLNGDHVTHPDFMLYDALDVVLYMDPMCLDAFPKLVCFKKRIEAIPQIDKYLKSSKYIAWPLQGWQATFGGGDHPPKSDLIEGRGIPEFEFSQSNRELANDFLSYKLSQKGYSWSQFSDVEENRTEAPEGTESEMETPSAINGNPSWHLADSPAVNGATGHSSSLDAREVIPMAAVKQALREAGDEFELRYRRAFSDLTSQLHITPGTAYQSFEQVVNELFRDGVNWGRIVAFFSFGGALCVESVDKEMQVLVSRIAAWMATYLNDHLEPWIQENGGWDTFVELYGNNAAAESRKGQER

BCLXL [6] = molecular target: T1, BCLXL; test: AlphaLISA assay (BIM peptide displacement); assay type: binding; conditions: 20 pM protein, 1 nM peptide
In short: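 Competitive displacement of fluorescein-labelled BIM peptide (1 nM) from biotinylated GST-BCL-XL(2-209) (20 pM) in 10 mM HEPES, 150 mM NaCl, 0.05% Tween 20, pH 7.4, 4% DMSO; 11-point dilutions. Overnight at 23° C with acceptor beads, then donor beads 2 h; Alpha signal at 615 nm.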

Bcl-xL protein = molecular target: T2, Bcl-xL protein (Homo sapiens, UniProt Q07817, N197C); test: Fluorescence quenching assay (PUMA peptide displacement); assay type: binding; conditions: 1 nM protein, 400 nM peptide, 2 hours at 23° C.; KI determined from IC50
T2 construct: (2-197)[N197C]; His-His (two His8 stretches joined by a Gly/Ala/Ser/Thr linker)
T2 sequence (Q07817 2-197 N197C): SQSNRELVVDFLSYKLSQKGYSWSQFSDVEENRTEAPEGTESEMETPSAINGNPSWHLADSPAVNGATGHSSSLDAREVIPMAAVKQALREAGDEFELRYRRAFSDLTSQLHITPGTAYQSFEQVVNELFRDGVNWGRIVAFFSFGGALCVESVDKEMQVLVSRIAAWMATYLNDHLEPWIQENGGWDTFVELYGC
In short: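 Compounds were tested as an 11-point series in pH 7.4 HEPES/NaCl/Tween buffer with 5% DMSO, 2 h at 23 °C. Cy5-tagged Bcl-xL(2-197, N197C) at 1 nM and quencher-tagged PUMA peptide at 400 nM were used. Competitive binders restore fluorescence (620/680 nm), and IC50 values were converted to KI.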

H146 cells = test: H146 cell viability, MTT assay; assay type: cell-based; conditions: Homo sapiens, NCI-H146, 48 h, 48 h exposure
In short: (§1)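 Viability read by MTT reduction (OD 540 nm after overnight SDS/HCl lysis) after 48 h compound treatment of cells in RPMI 1640/10% FBS. Triplicates at nine concentrations, 3.16-fold apart; four-parameter curve fitting yields IC50.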

MOLT-4 cells = test: MOLT-4 cell viability, MTT assay; assay type: cell-based; conditions: Homo sapiens, MOLT-4, 48 h, 48 h exposure
In short: as §1

[7] = test system: MOLT-4 T-cell Acute Lymphoblastic Leukemia (T-ALL) model; test: MOLT-4 xenograft efficacy study (tumor growth inhibition); assay type: in vivo, female NOD SCID mice; conditions: for % TGI (day 17): 3.75 mg/kg, IV, Q3D6; for activity in vivo after intravenous administration: MOLT-4 xenograft
Method: The in vivo therapeutic and pharmacodynamic effects of Bcl-xL-targeting small molecules were determined in MOLT-4 T-cell Acute Lymphoblastic Leukemia (T-ALL) model upon intravenous (IV) administration. The tested compounds were formulated in Hydroxypropyl-β-Cyclodextrin 20%/Hydrogen Chloride 25 mM (HPBCD/HCl). MOLT-4 cells (ATCC No. CRL-1582) were cultured in RPMI supplemented with 10% FBS. Cells were re-suspended in 50% matrigel (BD Biosciences) and 0.1 mL containing 5×10^6 cells was subcutaneously inoculated into the right flank of female NOD SCID mice (Charles River). For efficacy studies, when tumors reached the appropriate volume, mice were randomized (8 animals per group) using Easy stat software. Control vehicle (HPBCD/HCl), Example 73 (3.75 or 7.5 mg/kg) or Example 100 (3.75 mg/kg) were injected IV ([…]-[…]). Mice body weight was monitored three times a week and tumor size was measured using electronic calipers. Tumor volume was estimated by measuring the minimum and maximum tumor diameters using the formula: (minimum diameter)^2 (maximum diameter)/2. At the end of the treatment cycle (day 17), tumor growth inhibition was calculated using the formula: [formula] Response was evaluated as follows: CR (Complete Response) if tumor size was ≤25 mm^3 for at least three consecutive measurements, PR (Partial Response) if tumor size was comprised between 25 mm^3 and half of the starting size for at least three consecutive measurements. Mice were sacrificed at the first measurement for which tumor volume exceeded 2000 mm^3 or at the first signs of animal health deterioration. Efficacy of Example 73 and Example 100 on MOLT-4 xenografts is illustrated in Table 5. Treatment was started 12 days post tumor cells inoculation (average size: 214 mm^3). Vehicle (HPBCD/HCl), Example 73 (3.75 and 7.5 mg/kg) or Example 100 (3.75 mg/kg) were dosed IV each 3 days for a total of 6 administrations.

[8] = test system: T-ALL (T-cell Acute Lymphoblastic Leukemia) and different types of solid tumors; conditions: pre-clinical models of T-ALL and different types of solid tumors; cited from earlier work
MOLT-4 = conditions: mature T-ALL cell line xenograft model MOLT-4; cited from earlier work

Row | Ki (BCLXL [5]) | IC50 (BCLXL [6]) | IC50 (H146 cells) | IC50 (MOLT-4 cells) | Compound | activity in vivo after intravenous administration [7] | further results
1 | – | – | – | – | CC1(C)CCC(c2ccc(Cl)cc2)=C(CN2CCN(c3ccc(C(=O)NS(=O)(=O)c4ccc(N[C@H](CCN5CCOCC5)CSc5ccccc5)c(S(=O)(=O)C(F)(F)F)c4)cc3)CC2)C1 [ABT-263] | – | activity in pre-clinical models [1]: has shown activity; antitumor activity in clinical studies (lymphoid malignancies): exhibited objective antitumor activity; activity in T-ALL patient derived xenograft models [2]: promising activity
2 | – | – | – | – | CN(C)CC[C@H](CSc1ccccc1)Nc1ccc(S(=O)(=O)NC(=O)c2ccc(N3CCN(Cc4ccccc4-c4ccc(Cl)cc4)CC3)cc2)cc1[N+](=O)[O-] [ABT-737] | – | inhibition of lymphocyte proliferation (lymphocyte proliferation): potent inhibition of lymphocyte proliferation; disease severity [3]: significant decrease in disease severity; allogeneic T-cell activation, proliferation, and cytotoxicity (allogeneic T-cell): prevented allogeneic T-cell activation, proliferation, and cytotoxicity; allogeneic T- and B-cell responses [4]: inhibited allogeneic T- and B-cell responses; activity in T-ALL patient derived xenograft models [2]: promising activity
3 | < 1 nM | 0.0077 nM | 4.8 nM | 1.51 nM | CNCC#Cc1ccc(OCCCc2sc(N(C)c3cc(C)c(Nc4nc5ccccc5s4)nn3)nc2C(=O)O)c(F)c1 [Example 73, 2-({6-[(1,3-Benzothiazol-2-yl)amino]-5-methylpyridazin-3-yl}(methyl)amino)-5-(3-{2-fluoro-4-[3-(methylamino)prop-1-yn-1-yl]phenoxy]propyl)-1,3-thiazole-4-carboxylic acid] | active in vivo | Ki (Bcl-xL protein): 0.0028 nM; % TGI (day 17) [7]: 56.9%
4 | 1.1 nM | 0.074 nM | 6.78 nM | 6.72 nM | CNCCN(C)CC#Cc1ccc(OCCCc2sc(N(C)c3cc(C)c(Nc4nc5ccccc5s4)nn3)nc2C(=O)O)c(F)c1 [Example 74, 2-({6-[(1,3-Benzothiazol-2-yl)amino]-5-methylpyridazin-3-yl}(methyl)amino)-5-{3-[2-fluoro-4-(3-{methyl[2-(methylamino)ethyl]amino}prop-1-yn-1-yl)phenoxy]propyl}-1,3-thiazole-4-carboxylic acid] | active in vivo | Ki (Bcl-xL protein): 0.0061 nM
5 | < 1 nM | 0.077 nM | 11.3 nM | 2.37 nM | Cc1cc(N(C)c2nc(C(=O)O)c(CCCOc3ccc(C#CCN(C)CCO)cc3F)s2)nnc1Nc1nc2ccccc2s1 [Example 76, 2-({6-[(1,3-Benzothiazol-2-yl)amino]-5-methylpyridazin-3-yl}(methyl)amino)-5-[3-(2-fluoro-4-{3-[(2-hydroxyethyl)(methyl)amino]prop-1-yn-1-yl}phenoxy)propyl]-1,3-thiazole-4-carboxylic acid] | active in vivo | –
6 | 1.6 nM | 0.032 nM | 38.6 nM | 12.6 nM | Cc1cc(N(C)c2nc(C(=O)O)c(CCCOc3ccc(C#CCO)cc3F)s2)nnc1Nc1nc2ccccc2s1 [Example 100, 2-({6-[(1,3-Benzothiazol-2-yl)amino]-5-methylpyridazin-3-yl}(methyl)amino)-5-{3-[2-fluoro-4-(3-hydroxyprop-1-yn-1-yl)phenoxy]propyl}-1,3-thiazole-4-carboxylic acid] | active in vivo | % TGI (day 17) [7]: 64.6%
7 | – | – | – | – | CN(C)CC#Cc1ccc(OCCCc2sc(N3CCc4cccc(C(=O)Nc5nc6ccccc6s5)c4C3)nc2C(=O)O)c(F)c1 [Example A-1155463] | – | in vivo activity [8]: exhibited in vivo activity
8 | – | – | – | – | Cc1c(-c2ccc(N3CCc4cccc(C(=O)Nc5nc6ccccc6s5)c4C3)nc2C(=O)O)cnn1CC12CC3CC(CC(C3)C1)C2 [Example A-1331852] | – | in vivo activity [8]: exhibited in vivo activity; in vitro and in vivo activity (MOLT-4): in vitro and in vivo activity
